This note sets out measurements from patent US7709498B2, “Quinoline derivatives as antibacterial agents” (Janssen Pharmaceutica N.V., priority 2005, dated 2010).

Format in all cases: cell-based
Experiment [1] concerns Enterococcus faecalis (ATCC14506). The experiment can be described thus: Microtitre plate assay, IC90 determination, EFA 14506. The conditions noted are these: 90% inhibitory concentration for bacterial growth, 37° C., resazurin fluorescence; for IC90: Enterococcus faecalis, ATCC14506, 24 h, read-out: IC90 (μg/ml) EFA 14506. The protocol:
(§1) The bacteria used in this study were grown overnight in flasks containing 100 ml Mueller-Hinton Broth (Becton Dickinson—cat. no. 275730) in sterile de-ionized water, with shaking, at 37° C. Stocks (0.5 ml/tube) were stored at −70° C. until use. Bacteria titrations were performed in microtiter plates to detect the TCID50, in which the TCID50 represents the dilution that gives rise to bacterial growth in 50% of inoculated cultures.
(§2) In general, an inoculum level of approximately 100 TCID50 was used for susceptibility testing.
(§3) Flat-bottom, sterile 96-well plastic microtiter plates were filled with 180 μl of sterile deionized water, supplemented with 0.25% BSA. Subsequently, stock solutions (7.8× final test concentration) of compounds were added in 45 μl volumes in column 2. Serial five-fold dilutions (45 μl in 180 μl) were made directly in the microtiter plates from column 2 to reach column 11. Untreated control samples with (column 1) and without (column 12) inoculum were included in each microtiter plate. Depending on the bacteria type, approximately 10 to 60 CFU per well of bacteria inoculum (100 TCID50), in a volume of 100 μl in 2.8× Mueller-Hinton broth medium, was added to the rows A to H, except column 12. The same volume of broth medium without inoculum was added to column 12 in row A to H. The cultures were incubated at 37° C. for 24 hours under a normal atmosphere (incubator with open air valve and continuous ventilation). At the end of incubation, one day after inoculation, the bacterial growth was quantitated fluorometrically. Therefore resazurin (0.6 mg/ml) was added in a volume of 20 μl to all wells 3 hours after inoculation, and the plates were re-incubated overnight. A change in colour from blue to pink indicated the growth of bacteria. The fluorescence was read in a computer-controlled fluorometer (Cytofluor Biosearch) at an excitation wavelength of 530 nm and an emission wavelength of 590 nm. The % growth inhibition achieved by the compounds was calculated according to standard methods. The IC90 (expressed in μg/ml) was defined as the 90% inhibitory concentration for bacterial growth.
(§4) BSU 3639 means Bacillus subtilis (ATCC43639); ECO 25922 means Escherichia coli (ATCC25922); EFA 14506 means Enterococcus faecalis (ATCC14506); EFA 29212 means Enterococcus faecalis (ATCC29212); LMO 49594 means Listeria monocytogenes (ATCC49594); PAE 27853 means Pseudomonas aeruginosa (ATCC27853); SMU 33402 means Streptococcus mutans (ATCC33402); SPN 6305 means Streptococcus pneumoniae (ATCC6305); SPY 8668 means Streptococcus pyogens (ATCC8668); STA 43300 means Staphylococcus aureus (ATCC43300); STA 25923 means Staphylococcus aureus (ATCC25923); STA 29213 means Staphylococcus aureus (ATCC29213); STA RMETH means methicilline resistant Staphylococcus aureus (MRSA) (a clinical isolate from the University of Antwerp). ATCC means American type tissue culture.
For orientation: Resazurin is reduced to fluorescent resorufin, in cell work by metabolically active cells.

Experiment [2] concerns Bacillus subtilis (ATCC43639). In words: Microtitre plate assay, IC90 determination, BSU 43639. The conditions noted are these: 90% inhibitory concentration for bacterial growth, 37° C., resazurin fluorescence; for IC90: Bacillus subtilis, ATCC43639, 24 h, read-out: IC90 (μg/ml) BSU 43639. The method, then: as §1, §2, §3, §4
The subject of experiment [3] is Pseudomonas aeruginosa (ATCC27853). In words: Microtitre plate assay, IC90 determination, PAE 27853. To be noted: 90% inhibitory concentration for bacterial growth, 37° C., resazurin fluorescence; for IC90: Pseudomonas aeruginosa, ATCC27853, 24 h, read-out: IC90 (μg/ml) PAE 27853; for IC90 (μg/ml) PAE 27853: 24 hours. The method, then:
as §1, §2, §3, §4

The subject of experiment [4] is Streptococcus pyogens (ATCC8668). The experiment can be described thus: Microtitre plate assay, IC90 determination, SPY 8668. The conditions noted are these: 90% inhibitory concentration for bacterial growth, 37° C., resazurin fluorescence; for IC90 (μg/ml) SPY 8668: 24 hours. The protocol: as §1, §2, §3, §4
For experiment [5], the system named is Listeria monocytogenes (ATCC49594). The experiment can be described thus: Microtitre plate assay, IC90 determination, LMO 49594. The conditions noted are these: 90% inhibitory concentration for bacterial growth, 37° C., resazurin fluorescence; for IC90 (μg/ml) LMO 49594: 24 hours; for IC90: Listeria monocytogenes, ATCC49594, 24 h, read-out: IC90 (μg/ml) LMO 49594. The protocol: as §1, §2, §3, §4

Experiment [6] relates to Enterococcus faecalis (ATCC29212). In words: Microtitre plate assay, IC90 determination, EFA 29212. The conditions noted are these: 90% inhibitory concentration for bacterial growth, 37° C., resazurin fluorescence; for IC90: Enterococcus faecalis, ATCC29212, 24 h, read-out: IC90 (μg/ml) EFA 29212; for IC90 (μg/ml) EFA 29212: 24 hours. The protocol: as §1, §2, §3, §4
In experiment [7] the test system is Streptococcus pneumoniae (ATCC6305). The experiment can be described thus: Microtitre plate assay, IC90 determination, SPN 6305. To be noted: 90% inhibitory concentration for bacterial growth, 37° C., resazurin fluorescence; for IC90 (μg/ml) SPN 6305: 24 hours. The protocol: as §1, §2, §3, §4
Experiment [8] concerns Staphylococcus aureus (ATCC43300). The experiment can be described thus: Microtitre plate assay, IC90 determination, STA 43300. To be noted: 90% inhibitory concentration for bacterial growth, 37° C., resazurin fluorescence; for IC90: Staphylococcus aureus, ATCC43300, 24 h, read-out: IC90 (μg/ml) STA 43300; for IC90 (μg/ml) STA 43300: 24 hours. The protocol: as §1, §2, §3, §4

For experiment [9], the system named is Staphylococcus aureus (ATCC25923). In words: Microtitre plate assay, IC90 determination, STA 25923. The conditions noted are these: 90% inhibitory concentration for bacterial growth, 37° C., resazurin fluorescence; for IC90: Staphylococcus aureus, ATCC25923, 24 h, read-out: IC90 (μg/ml) STA 25923; for IC90 (μg/ml) STA 25923: 24 hours. The protocol: as §1, §2, §3, §4

The subject of experiment [10] is Streptococcus mutans (ATCC33402). In words: Microtitre plate assay, IC90 determination, SMU 33402. The conditions noted are these: 90% inhibitory concentration for bacterial growth, 37° C., resazurin fluorescence; for IC90: Streptococcus mutans, ATCC33402, 24 h, read-out: IC90 (μg/ml) SMU 33402; for IC90 (μg/ml) SMU 33402: 24 hours. The protocol:
as §1, §2, §3, §4

Experiment [11] concerns methicilline resistant Staphylococcus aureus (MRSA) (a clinical isolate from the University of Antwerp). The experiment can be described thus: Microtitre plate assay, IC90 determination, STA RMETH. The conditions noted are these: Staphylococcus aureus, MRSA, 24 h, 90% inhibitory concentration for bacterial growth, 37° C., resazurin fluorescence, read-out: IC90 (μg/ml) STA RMETH. The protocol:
as §1, §2, §3, §4

In brackets after ≈: the same amount, converted by molar mass.

As to `COc1nc2ccc(Br)cc2cc1C(c1ccccc1)C(O)(CCN(C)C)c1ccc2ccccc2c1` (stereo not drawn) [Compound 45], the IC90 in experiment [1] was 12.4 µg/mL (≈ 22.3 µM); in experiment [2], 11.1 µg/mL (≈ 20 µM).

In the case of `COc1nc2ccc(Br)cc2cc1C(c1ccccc1)C(O)(CCN(C)C)c1cccc(F)c1` (stereo not drawn) [Compound 109], the IC90 in experiment [3] came out at 11.7 µg/mL (≈ 22.4 µM); in [6], 11.7 µg/mL (≈ 22.4 µM); in experiment [8] it was 13.1 µg/mL (≈ 25 µM); in [9], 10.4 µg/mL (≈ 19.9 µM). In addition, the “IC90 (μg/ml) SPY 8668” value in experiment [4] was 13.1 µg/mL (≈ 25 µM). Besides, in experiment [5], the “IC90 (μg/ml) LMO 49594” value was 9.3 µg/mL (≈ 17.8 µM). Moreover, the “IC90 (μg/ml) SPN 6305” value in experiment [7] turned out to be 13.1 µg/mL (≈ 25 µM).

Consider `COc1nc2ccc(Br)cc2cc1C(c1ccccc1)C(O)(CCN(C)C)c1cccc(F)c1` (stereo not drawn) [Compound 39], for which the “IC90 (μg/ml) PAE 27853” value in [3] was 10.4 µg/mL (≈ 19.9 µM). Besides, the “IC90 (μg/ml) SPY 8668” value in [4] worked out at 1.9 µg/mL (≈ 3.63 µM). Moreover, in experiment [5], the “IC90 (μg/ml) LMO 49594” value came out at 4.7 µg/mL (≈ 8.98 µM). For the same compound, in [6], the “IC90 (μg/ml) EFA 29212” value came out at 10.4 µg/mL (≈ 19.9 µM). Besides, in experiment [7], the “IC90 (μg/ml) SPN 6305” value was 5.9 µg/mL (≈ 11.3 µM). Besides, the “IC90 (μg/ml) STA 43300” value in [8] stood at 13.1 µg/mL (≈ 25 µM). In addition, the “IC90 (μg/ml) STA 25923” value in [9] amounted to 10.4 µg/mL (≈ 19.9 µM). In experiment [10], the IC90 came out at 11.7 µg/mL (≈ 22.4 µM).

On to `COc1nc2ccc(Br)cc2cc1C(c1ccccc1)C(O)(CCN(C)C)c1cccc2ccccc12` (stereo not drawn) [Compound 13], for which the “IC90 (μg/ml) PAE 27853” value in experiment [3] is 2.2 µg/mL (≈ 3.96 µM). Moreover, in [4], the “IC90 (μg/ml) SPY 8668” value is 8.8 µg/mL (≈ 15.8 µM). Also, in experiment [1] (24 hours), the “IC90 (μg/ml) EFA 14506” value came to 11.1 µg/mL (≈ 20 µM). In addition, the “IC90 (μg/ml) BSU 43639” value in experiment [2] (24 hours) is 11.1 µg/mL (≈ 20 µM). Moreover, in [5], the “IC90 (μg/ml) LMO 49594” value came out at 11.1 µg/mL (≈ 20 µM). Besides, the “IC90 (μg/ml) EFA 29212” value in experiment [6] worked out at 8.8 µg/mL (≈ 15.8 µM). Further, the “IC90 (μg/ml) SPN 6305” value in experiment [7] is 2.8 µg/mL (≈ 5.04 µM). Further, in experiment [8], the “IC90 (μg/ml) STA 43300” value came out at 11.1 µg/mL (≈ 20 µM). For the same compound, the “IC90 (μg/ml) STA 25923” value in experiment [9] was 11.1 µg/mL (≈ 20 µM). Further, in experiment [10], the “IC90 (μg/ml) SMU 33402” value came to 3.5 µg/mL (≈ 6.3 µM).

On to `COc1nc2ccc(Br)cc2cc1C(c1ccccc1)C(O)(CCn1ccnc1)c1ccccc1` (stereo not drawn) [Compound 49], for which, in [4], the “IC90 (μg/ml) SPY 8668” value worked out at 10.5 µg/mL (≈ 19.9 µM). The “IC90 (μg/ml) LMO 49594” value in [5] amounted to 10.5 µg/mL (≈ 19.9 µM). The IC90 in [7] (Streptococcus pneumoniae, ATCC6305, 24 h, read-out: IC90 (μg/ml) SPN 6305) was found to be 13.3 µg/mL (≈ 25.2 µM); in [9], 5.9 µg/mL (≈ 11.2 µM); in experiment [10] it was 10.5 µg/mL (≈ 19.9 µM); in [11], 11.8 µg/mL (≈ 22.3 µM).

Regarding `COc1nc2ccc(-c3ccccc3)cc2cc1C(c1ccccc1)C(O)(CCN(C)C)c1ccccc1` (stereo not drawn) [Compound 26], the IC90 was determined as 2 µg/mL (≈ 3.98 µM) in experiment [3]; 2.5 µg/mL (≈ 4.97 µM) in experiment [4] (Streptococcus, ATCC8668, 24 h, read-out: IC90 (μg/ml) SPY 8668); 10 µg/mL (≈ 19.9 µM) in [2]; 4.5 µg/mL (≈ 8.95 µM) in experiment [5]; 4.5 µg/mL (≈ 8.95 µM) in experiment [6]; 11.3 µg/mL (≈ 22.5 µM) in [8]. Besides, the results for the IC90 in experiment [9] and in experiment [10] were 8.9 µg/mL (≈ 17.7 µM) and 11.3 µg/mL (≈ 22.5 µM), respectively. Further, the “IC90 (μg/ml) SPN 6305” value in experiment [7] is 5.6 µg/mL (≈ 11.1 µM).

Consider `COc1nc2ccc(Br)cc2cc1C(c1ccccc1)C(O)(CCN1CCCCC1)c1ccc2cc(Br)ccc2c1` (stereo not drawn) [Compound 155], for which the IC90 in [1] stood at 26.9 µg/mL (≈ 39.9 µM).

`COc1nc2ccc(Br)cc2cc1C(c1ccccc1)C(O)(CCN(C)C)c1ccccc1` (single isomer, unassigned) [E]: the IC90 in experiment [3] stood at 10.1 µg/mL (≈ 20 µM); in experiment [2], 12.7 µg/mL (≈ 25.1 µM); in experiment [5] it was 7.1 µg/mL (≈ 14 µM); in experiment [6], 11.3 µg/mL (≈ 22.4 µM); in experiment [8], 12.7 µg/mL (≈ 25.1 µM). For the same compound, the “IC90 (μg/ml) SPY 8668” value in experiment [4] came out at 5.1 µg/mL (≈ 10.1 µM). In addition, in experiment [7], the “IC90 (μg/ml) SPN 6305” value is 5.7 µg/mL (≈ 11.3 µM). Besides, the “IC90 (μg/ml) SMU 33402” value in [10] came to 10.1 µg/mL (≈ 20 µM).
